Source: the NIST ThermoML archive (doi:10.1021/acs.jced.8b00070)

Experiment: xn = mol fraction of the nth substance listed
Conditions: Liquid; for viscosity: Oscillating disk viscometry; for mass density: Vibrating tube method

CCCCn1cc[n+](C)c1.F[B-](F)(F)F [1-butyl-3-methylimidazolium tetrafluoroborate] + O
Conditions | mass density, x1 = 0.01 [kg/m3] | mass density, x1 = 0.0227 [kg/m3] | mass density, x1 = 0.0392 [kg/m3] | mass density, x1 = 0.0616 [kg/m3] | mass density, x1 = 0.0938 [kg/m3] | viscosity, x1 = 0.01 [mPa·s] | viscosity, x1 = 0.0227 [mPa·s] | viscosity, x1 = 0.0392 [mPa·s] | viscosity, x1 = 0.0616 [mPa·s] | viscosity, x1 = 0.0938 [mPa·s]
293.15 K, 101 kPa | – | – | – | – | – | 1.07 | 1.35 | 1.84 | 2.28 | 3.04
293.15 K, 101.3 kPa | 1018.9 | 1038.1 | 1060.4 | 1079.5 | 1103.7 | – | – | – | – | –
298.15 K, 101 kPa | – | – | – | – | – | 0.95 | 1.19 | 1.6 | 1.98 | 2.69
298.15 K, 101.3 kPa | 1017.1 | 1036 | 1058 | 1076.7 | 1100.6 | – | – | – | – | –
303.15 K, 101 kPa | – | – | – | – | – | 0.84 | 1.05 | 1.4 | 1.75 | 2.34
303.15 K, 101.3 kPa | 1015.2 | 1033.5 | 1055.3 | 1073.6 | 1097.2 | – | – | – | – | –
308.15 K, 101 kPa | – | – | – | – | – | 0.76 | 0.95 | 1.25 | 1.56 | 2.06
308.15 K, 101.3 kPa | 1013.2 | 1031.3 | 1052.6 | 1070.7 | 1093.9 | – | – | – | – | –
313.15 K, 101 kPa | – | – | – | – | – | 0.69 | 0.86 | 1.13 | 1.4 | 1.84
313.15 K, 101.3 kPa | 1010.9 | 1028.6 | 1049.8 | 1067.5 | 1090.5 | – | – | – | – | –
318.15 K, 101 kPa | – | – | – | – | – | 0.64 | 0.79 | 1.02 | 1.27 | 1.66
318.15 K, 101.3 kPa | 1008.6 | 1025.9 | 1046.9 | 1064.3 | 1087.4 | – | – | – | – | –
323.15 K, 101 kPa | – | – | – | – | – | 0.59 | 0.74 | 0.94 | 1.16 | 1.48
323.15 K, 101.3 kPa | 1006.1 | 1023.4 | 1044 | 1061.2 | 1084.1 | – | – | – | – | –
328.15 K, 101 kPa | – | – | – | – | – | 0.55 | 0.69 | 0.88 | 1.07 | 1.31
328.15 K, 101.3 kPa | 1001.8 | 1019.8 | 1041.4 | 1058.3 | 1080.9 | – | – | – | – | –
333.15 K, 101 kPa | – | – | – | – | – | 0.53 | 0.62 | 0.82 | 0.99 | 1.26
333.15 K, 101.3 kPa | 999.2 | 1017.6 | 1040.6 | 1057.4 | 1079.9 | – | – | – | – | –

NCCO [2-aminoethan-1-ol] + O
101.3 kPa
Conditions | mass density, x1 = 0.0394 [kg/m3] | mass density, x1 = 0.087 [kg/m3] | mass density, x1 = 0.1456 [kg/m3] | mass density, x1 = 0.2197 [kg/m3] | viscosity, x1 = 0.0394 [mPa·s] | viscosity, x1 = 0.087 [mPa·s] | viscosity, x1 = 0.1456 [mPa·s] | viscosity, x1 = 0.2197 [mPa·s]
293.15 K | 1005.3 | 1011.8 | 1018.9 | 1025.7 | 1.19 | 2.1 | 3.06 | 5.58
298.15 K | 1003.8 | 1009.9 | 1016.3 | 1022.7 | 1.06 | 1.71 | 2.69 | 4.67
303.15 K | 1002.1 | 1007.7 | 1013.7 | 1019.7 | 0.94 | 1.47 | 2.29 | 3.91
308.15 K | 1000.3 | 1005.6 | 1011.2 | 1016.8 | 0.85 | 1.3 | 1.91 | 3.28
313.15 K | 998.2 | 1003.2 | 1008.5 | 1013.6 | 0.76 | 1.15 | 1.69 | 2.77
318.15 K | 996 | 1000.7 | 1005.7 | 1010.5 | 0.69 | 1.03 | 1.5 | 2.39
323.15 K | 993.8 | 998.2 | 1002.8 | 1007.3 | 0.63 | 0.93 | 1.33 | 2.11
328.15 K | 988.9 | 995.8 | 1000.1 | 1004.4 | 0.58 | 0.85 | 1.17 | 1.85
333.15 K | 987.2 | 995.1 | 999.3 | 1003.2 | 0.54 | 0.79 | 1.05 | 1.65
